From ChEMBL document CHEMBL1134617 (J Med Chem, 2001)

What follows are molecules tested against T1, 5-hydroxytryptamine receptor 2A (Rattus norvegicus, UniProt P14842) (assay: Binding affinity against rat 5-hydroxytryptamine 2A receptor using [3H]DOB as radioligand).
T1 sequence (P14842 whole entry): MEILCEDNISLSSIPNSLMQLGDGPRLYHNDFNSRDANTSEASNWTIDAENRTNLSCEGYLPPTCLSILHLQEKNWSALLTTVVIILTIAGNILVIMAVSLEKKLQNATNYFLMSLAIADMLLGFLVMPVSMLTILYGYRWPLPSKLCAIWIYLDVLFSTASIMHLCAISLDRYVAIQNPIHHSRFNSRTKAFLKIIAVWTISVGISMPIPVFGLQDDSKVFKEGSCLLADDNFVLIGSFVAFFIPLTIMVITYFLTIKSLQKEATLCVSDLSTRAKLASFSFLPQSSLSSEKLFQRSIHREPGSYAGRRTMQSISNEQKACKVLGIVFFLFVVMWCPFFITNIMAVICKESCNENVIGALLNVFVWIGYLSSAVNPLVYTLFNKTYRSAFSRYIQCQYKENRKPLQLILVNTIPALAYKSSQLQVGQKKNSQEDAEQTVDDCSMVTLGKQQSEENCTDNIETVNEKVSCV

First: COc1cc(CCCC2CCCCC2)ccc1CCN
Second: COc1ccc(CCCC2CCCCC2)cc1CCN
The Ki of the first is 3-fold lower: 250 nM for the first, 760 nM for the second. The first binds more tightly here.

Compared with `COc1cc(CCCCCc2ccccc2)ccc1CCN`, `COc1cc(CCCCc2ccccc2)ccc1CCN` is 2.3-fold higher in Ki: 18 nM for the first, 42 nM for the second. The first binds more tightly here.

`COc1ccc(Br)cc1CCN` and `COc1ccc(I)cc1CCN` are within 1.5-fold of each other in Ki: 208 nM for the first, 211 nM for the second.

First: COc1cc(OCCc2ccccc2)ccc1CCN
Second: COc1ccc(OCCc2ccccc2)cc1CCN
The Ki of the first is 4-fold lower: 110 nM for the first, 440 nM for the second.

First: COc1ccc(CCCc2ccccc2)cc1CC(C)N (configuration not stated)
Second: COc1ccc(CCCc2ccccc2)cc1CCN
The Ki of the first is 1.6-fold lower: 19 nM for the first, 30 nM for the second.

First: COc1ccc(CCCCc2ccccc2)cc1CCN
Second: COc1cc(CCCc2ccccc2)ccc1CCN
The Ki of the first is 5.6-fold higher: 67 nM for the first, 12 nM for the second.

Going from `COc1ccccc1CCN` to `COc1ccc(O)cc1CCN`, the Ki falls from > 10000 nM to 1330 nM.

First: COc1cc(C#CCCCc2ccccc2)ccc1CCN
Second: COc1cc(-c2ccccc2)ccc1CCN
The Ki of the first is 20-fold lower: 240 nM for the first, 4900 nM for the second.

First: COc1ccc(OCc2ccccc2)cc1CCN
Second: COc1ccc(-c2ccccc2)cc1CCN
The Ki of the first is 6-fold lower: 255 nM for the first, 1520 nM for the second. The first binds more tightly here.

For `COc1ccc(OCCc2ccc(Br)cc2)cc1CCN`, the Ki was 35 nM.

Each molecule was assayed against T2, 5-hydroxytryptamine receptor 2C (Rattus norvegicus, UniProt P08909) (assay: Binding affinity against rat 5-hydroxytryptamine 2C receptor using [3H]mesulergine as radioligand).
T2 sequence (P08909 whole entry): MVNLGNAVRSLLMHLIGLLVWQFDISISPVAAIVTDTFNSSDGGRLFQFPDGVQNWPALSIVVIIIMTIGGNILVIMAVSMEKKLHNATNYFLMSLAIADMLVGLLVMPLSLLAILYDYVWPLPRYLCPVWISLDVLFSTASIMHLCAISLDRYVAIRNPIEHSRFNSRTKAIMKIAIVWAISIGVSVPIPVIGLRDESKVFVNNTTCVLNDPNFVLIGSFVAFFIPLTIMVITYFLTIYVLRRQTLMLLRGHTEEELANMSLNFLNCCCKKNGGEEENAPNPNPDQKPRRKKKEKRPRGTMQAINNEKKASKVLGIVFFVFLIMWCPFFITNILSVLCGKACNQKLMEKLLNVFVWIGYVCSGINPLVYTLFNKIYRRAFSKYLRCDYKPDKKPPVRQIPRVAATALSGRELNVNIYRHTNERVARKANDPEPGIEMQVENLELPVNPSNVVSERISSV

Going from `COc1cc(CCCC2CCCCC2)ccc1CCN` to `COc1ccc(CCCC2CCCCC2)cc1CCN`, the Ki rises from 116 nM to 198 nM (1.7-fold). The first binds more tightly here.

Compared with `COc1cc(CCCCCc2ccccc2)ccc1CCN`, `COc1cc(CCCCc2ccccc2)ccc1CCN` is 3.6-fold higher in Ki: 19 nM for the first, 68 nM for the second.

Compared with `COc1ccc(Br)cc1CCN`, `COc1ccc(I)cc1CCN` is 1.7-fold higher in Ki: 960 nM for the first, 1640 nM for the second. The first binds more tightly here.

Going from `COc1cc(OCCc2ccccc2)ccc1CCN` to `COc1ccc(OCCc2ccccc2)cc1CCN`, the Ki rises from 810 nM to 1790 nM (2.2-fold). The first binds more tightly here.

First: COc1ccc(CCCc2ccccc2)cc1CC(C)N (configuration not stated)
Second: COc1ccc(CCCc2ccccc2)cc1CCN
The Ki of the first is 2-fold lower: 110 nM for the first, 220 nM for the second.

Compared with `COc1ccc(CCCCc2ccccc2)cc1CCN`, `COc1ccc(CCCCCc2ccccc2)cc1CCN` is 2.1-fold higher in Ki: 71 nM for the first, 150 nM for the second.

Going from `COc1cc(Cc2ccccc2)ccc1CCN` to `COc1ccc(Cc2ccccc2)cc1CCN`, the Ki rises from 93 nM to 230 nM (2.5-fold).

Compared with `COc1ccccc1CCN`, `COc1ccc(O)cc1CCN` is lower in Ki: > 10000 nM for the first, 4860 nM for the second. The second binds more tightly here.

First: COc1ccc(C#CCCCc2ccccc2)cc1CCN
Second: COc1cc(C#CCCCc2ccccc2)ccc1CCN
The Ki of the first is 2.9-fold higher: 205 nM for the first, 70 nM for the second.

`COc1ccc(OCc2ccccc2)cc1CCN` and `COc1ccc(CCc2ccccc2)cc1CCN` are within 1.5-fold of each other in Ki: 410 nM for the first, 435 nM for the second.

Going from `COc1ccc(OC)c(CCN)c1` to `COc1ccc(OCCc2ccc(Br)cc2)cc1CCN`, the Ki falls from 6400 nM to 115 nM (56-fold). The second binds more tightly here.

Compared with `COc1cc(CCCc2ccccc2)ccc1CCN`, `COc1cc(CCc2ccccc2)ccc1CCN` is 1.7-fold lower in Ki: 295 nM for the first, 170 nM for the second.

Going from `COc1ccc(-c2ccccc2)cc1CCN` to `COc1cc(-c2ccccc2)ccc1CCN`, the Ki falls from 2870 nM to 1520 nM (1.9-fold).

These molecules were tested against Serotonin receptor 2a and 2c (5HT2A and 5HT2C) (Rattus norvegicus) (UniProt P08909+P14842) (assay: Ratio of binding affinity towards rat 5-HT2C and 5-HT2A receptors).
Serotonin receptor 2a and 2c (5HT2A and 5HT2C) (Rattus norvegicus), sequence (P14842 whole entry, looked up, one chain of several): as the sequence (P14842 whole entry) above
Type: protein assay

`COc1cc(CCCC2CCCCC2)ccc1CCN` and `COc1ccc(CCCC2CCCCC2)cc1CCN` cannot be ordered by Ratio: < 1 for the first, < 1 for the second.

First: COc1cc(CCCCCc2ccccc2)ccc1CCN
Second: COc1cc(CCCCc2ccccc2)ccc1CCN
The Ratio of the first is lower: < 1 for the first, 1 for the second.

First: COc1ccc(Br)cc1CCN
Second: COc1ccc(I)cc1CCN
The Ratio of the first is lower: 1 for the first, 2 for the second.

Compared with `COc1cc(OCCc2ccccc2)ccc1CCN`, `COc1ccc(OCCc2ccccc2)cc1CCN` is lower in Ratio: 5 for the first, 3 for the second.

First: COc1ccc(CCCc2ccccc2)cc1CC(C)N (configuration not stated)
Second: COc1cc(CCCc2ccccc2)ccc1CC(C)N (configuration not stated)
The Ratio of the first is lower: 8 for the first, 11 for the second.

`COc1ccc(CCCCc2ccccc2)cc1CCN` and `COc1ccc(CCCCCc2ccccc2)cc1CCN` are the same in Ratio: 1 for the first, 1 for the second.

Compared with `COc1cc(Cc2ccccc2)ccc1CCN`, `COc1ccc(Cc2ccccc2)cc1CCN` is lower in Ratio: 4 for the first, 1 for the second.

`COc1ccc(C#CCCCc2ccccc2)cc1CCN` and `COc1cc(C#CCCCc2ccccc2)ccc1CCN` cannot be ordered by Ratio: < 1 for the first, < 1 for the second.

Going from `COc1ccc(OCc2ccccc2)cc1CCN` to `COc1ccc(CCc2ccccc2)cc1CCN`, the Ratio rises from 1 to 2.

Going from `COc1ccc(OC)c(CCN)c1` to `COc1ccc(O)cc1CCN`, the Ratio falls from 2 to 1.

Compared with `COc1ccc(OCCc2ccc(Br)cc2)cc1CCN`, `COc1ccc(CCCc2ccccc2)cc1CCN` is higher in Ratio: 1 for the first, 11 for the second.

First: COc1cc(CCCc2ccccc2)ccc1CCN
Second: COc1cc(CCc2ccccc2)ccc1CCN
The Ratio of the first is higher: 16 for the first, 4 for the second.

Going from `COc1ccc(-c2ccccc2)cc1CCN` to `COc1cc(-c2ccccc2)ccc1CCN`, the Ratio falls from 1 to < 1.

The molecules below were run against T1, 5-hydroxytryptamine receptor 2A (assay: Binding affinity against rat 5-hydroxytryptamine 2A receptor using [3H]ketanserin as radioligand).

`COc1cc(CCCC2CCCCC2)ccc1CCN` and `COc1ccc(CCCC2CCCCC2)cc1CCN` are within 1.5-fold of each other in Ki: 438 nM for the first, 380 nM for the second.

`COc1cc(CCCCCc2ccccc2)ccc1CCN` and `COc1cc(CCCCc2ccccc2)ccc1CCN` are within 1.5-fold of each other in Ki: 72 nM for the first, 59 nM for the second.

`COc1ccc(Br)cc1CCN` and `COc1ccc(I)cc1CCN` are within 1.5-fold of each other in Ki: 1000 nM for the first, 700 nM for the second.

First: COc1cc(OCCc2ccccc2)ccc1CCN
Second: COc1ccc(OCCc2ccccc2)cc1CCN
The Ki of the first is 3.5-fold lower: 172 nM for the first, 600 nM for the second.

Compared with `COc1ccc(CCCc2ccccc2)cc1CC(C)N` (configuration not stated), `COc1ccc(CCCc2ccccc2)cc1CCN` is 1.5-fold higher in Ki: 13 nM for the first, 20 nM for the second.

`COc1ccc(CCCCc2ccccc2)cc1CCN` and `COc1ccc(CCCCCc2ccccc2)cc1CCN` are within 1.5-fold of each other in Ki: 89 nM for the first, 110 nM for the second.

Going from `COc1cc(Cc2ccccc2)ccc1CCN` to `COc1ccc(Cc2ccccc2)cc1CCN`, the Ki rises from 23 nM to 176 nM (7.7-fold). The first binds more tightly here.

Going from `COc1ccccc1CCN` to `COc1ccc(O)cc1CCN`, the Ki falls from > 10000 nM to 5960 nM.

`COc1ccc(C#CCCCc2ccccc2)cc1CCN` and `COc1cc(C#CCCCc2ccccc2)ccc1CCN` are the same in Ki: 295 nM for the first, 295 nM for the second.

`COc1ccc(OCc2ccccc2)cc1CCN` and `COc1ccc(CCc2ccccc2)cc1CCN` are within 1.5-fold of each other in Ki: 345 nM for the first, 240 nM for the second.

Going from `COc1ccc(OC)c(CCN)c1` to `COc1ccc(OCCc2ccc(Br)cc2)cc1CCN`, the Ki falls from 2820 nM to 91 nM (31-fold). The second binds more tightly here.

First: COc1cc(CCCc2ccccc2)ccc1CCN
Second: COc1cc(CCc2ccccc2)ccc1CCN
The Ki of the first is 2.6-fold lower: 18 nM for the first, 46 nM for the second. The first binds more tightly here.

Going from `COc1ccc(-c2ccccc2)cc1CCN` to `COc1cc(-c2ccccc2)ccc1CCN`, the Ki rises from 3460 nM to 6720 nM (1.9-fold). The first binds more tightly here.
